Measurements as given in US20060013822A1, “Utilization of mhc class II binding motifs in immunization to produce immune, serum, monoclonal antibodies and vaccines” (priority 2002, published 2006).
“Also recorded” adds a separate entry of the source.

Columns and labels:
[1] = test system: Lymph node T cells from TR3 peptide 1-13 immune animals; assay: Standard T cell proliferation assay (3H-thymidine incorporation); type: cell-based, Lewis rat; settings: T cells from TR3 peptide 1-13 immune Lewis rats with antigen presenting cells; after 48 hours in culture, 18 hour period
Protocol: Lymph node T cells from TR3 peptide 1-13 immune animals were cultured in the presence of antigen presenting cells and either TR3 peptide 1-13 or TR3 peptide 14-32. ^3H-thymidine incorporation was assessed after 48 hours in culture for an 18 hour period. The T cells responded in this standard T cell proliferation assay to TR3 peptide 1-13 but not to TR3 peptide 14-32. […] This implies that the missing component is a B cell epitope.
(§1) Two peptides were synthesized, TR3 peptide 1-13 and TR3 peptide 1-32. Both contain the binding motif but only one was long enough to have a portion hanging outside of the MHC Class II binding cleft. Lewis rats were immunized with one or the other of these peptides and sera tested for the presence of antibodies that would recognize the TR31-32 peptide before and after immunization.

Lewis rats = assay: Antibody response in sera of immunized Lewis rats, fluorescence ELISA on TR3 peptide coated plates; type: in vivo, Lewis rat; settings: bled after six weeks; for antibody titer against TR3 peptide 1-32 in sera of rats immunized with the peptide: TR31-32 coated plates, before and after immunization
Protocol: Rats were immunized and rested for four weeks. Immune sera were assayed at 1:5000 and compared to pre-immune titers by fluorescence ELISA (see below) using TR3 peptide 1-32 coated plates.
Lewis rats were immunized with TR3 peptide 1-13 and after six weeks the animals were bled and sera tested for binding to TR31-13 or TR31-32 coated plates using fluorescence ELISA.
as §1
(§2) The serum from rats immunized with TR3 peptide 1-32 were tested in a standard ELISA for epitope specificity. The protocol for ELISA has been described previously in (Tittle, Molecular Immunology 26:343-350, 1989), except that the substrate (methylumbelliferyl phosphate, MUP, Sigma-Aldrich, St. Louis, Mo.) was read fluorometrically rather than calorimetrically as with NPP (Nitrophenyl phosphate).

C57B1/6J mice = assay: Antibody response in sera of immunized C57B1/6J mice, fluorescence ELISA for anti-TR3 binding antibodies; type: in vivo, mouse; settings: immune sera collected after four weeks
Protocol: C57B1/6J mice were immunized with the native TR3 peptide 1-32 or with an altered TR3 sequence that contains a Threonine (T) to Phenylalanine (F) alteration at amino acid position 4 to introduce a known C57B1/6J MHC Class II binding motif. Immune sera were collected after four weeks and assessed for anti-TR3 binding antibodies by fluorescence ELISA.
as §2
A T to F change in the sequence of TR3 at AA4 an H-2^b binding motif was generated and C57B1/6J mice were immunized with the native TR3 peptide or with the T-F variant peptide.

Row | Substance | T cell proliferative response to the peptide in culture (3H-thymidine incorporation) [1] | antibody titer against TR3 peptide 1-13 in sera of rats immunized with the peptide (Lewis rats; TR31-13 coated plates) | antibody titer against TR3 peptide 1-32 in sera of rats immunized with the peptide (Lewis rats) | antibody titer against TR3 peptide 1-32 in sera of rats immunized with the peptide (Lewis rats; listed as TR3 peptide) | detectable anti-TR3 binding antibodies in immune sera of mice immunized with the peptide (C57B1/6J mice) | detectable anti-TR3 binding antibodies in immune sera of mice immunized with the peptide (C57B1/6J mice; listed as T-F variant peptide)
1 | TR3 peptide 14-32: amino acids 14-32 of the TR-3 peptide, extended peptide shown to be the B cell epitope (ALLLVLLGARAQGGTRSPR) | not |  |  |  |  | 
2 | QGGTRSPRCDCAG (MEQRPRGCAAVAA) [TR3 peptide 1-13] | very strong T cell responses; also recorded: good T-cell response | No detectable antibody | No detectable antibody | no appreciable antibody titer |  | 
3 | QGGFRSPRCDCAGDFHKKIGLFCCRGCPAGHY (Altered TR3 peptide with MHC class II binding motif from amino acids 4 through 12.; listed as Homo sapiens) |  |  |  |  | made an anti-TR3 response | immunogenic and induced an antibody response
